Experimental data as given in patent US20260191809A1, “Pharmaceutical Compositions Of D10-Docosahexaenoic Acid Or Esters Thereof” (BioJiva LLC, priority 2022, published 2026).

Tests used:
geographic atrophy = assay: Protection against geographic atrophy after intravitreal ferric ammonium citrate; assay type: in vivo, C57BL/6J mice
From the text: In this example, two cohorts of adult male wild-type C57BL/6J mice (Jackson Labs) were used. Both cohorts were fed identical feed containing 0.25% or 0.5% D-DHA or matching amounts of DHA as controls. After 4 weeks, the mice were given an intravitreal injection of 1 microliter of 0.5 millimolar ferric ammonium citrate diluted in 0.9% saline (test) or 1 microliter of 0.9% saline (control). Mice were then continued on their respective diets for 4 weeks after injection in order to evaluate whether D-DHA could protect against geographic atrophy which is related to AMD.

[1] = Predicted steady-state D-DHA substitution and plasma decline without dosing in patients, modeled from the mouse data; parameters: species or system human; details: for D-DHA substitution rate at steady-state (% of total DHA): DHA in human diet 130 mg
From the text: In contrast to controlled experimental diets, naturally occurring DHA is consumed by patients treated with D-DHA which can dilute the relative percentage of administered D-DHA absorbed with the total DHA pool and its final concentration at steady state in blood and eventually in the target tissue such as retina. The data and standard curves referred to above allow for the determination of retinal steady-state active D-DHA concentrations with reasonable accuracy by calculating the D-DHA/total DHA ratio in plasma and/or red blood cells. Table 4 exemplifies this by using a mean daily dietary intake of about 130 mg of DHA per day (which represents the 90th percentile of the mean usual DHA intake by males >51 years of age in the US.
FIGS. 3, 4, 5, and 6 illustrate how measuring plasma and red blood cell active D-DHA concentrations can be used to predict expected retinal steady-state concentrations. With a known fixed daily dose and the measured of active D-DHA substitution rate at steady-state, this also allows to approximate and monitor the mean dietary DHA intake of individual patients and permits either a timely adjustment of the daily D-DHA dose or dietary interventions to reduce natural DHA intake until the desired therapeutic active D-DHA substitution levels, preferably about 50% or more, can be reached.
In each case, the first order kinetics evidence that a dose of 250 mg dose of D-DHA will provide for a steady-state ratio of active D-DHA based on the total DHA concentration present, as set forth in Table 4. Extrapolating backwards from the case in Table 4, a dose of at least 130 mg/day of D-DHA should provide a 1:1 ratio of active D-DHA to DHA. That ratio has been shown above to be therapeutic. And a dose of 250 mg of higher should provide a ratio of 1.9:1 or higher which provides a margin for non-compliance as described herein above.
Tables 5, 6, and 7 are based on Table 2 and describe the time it takes for plasma D-DHA levels to fall below 50% or below 20% with 5 different daily doses of D-DHA in (i) patients in the 90th percentile of daily intake consuming up to 130 mg DHA (Table 5), (ii) those in the 95th percentile with a daily intake of up to 180 mg DHA (Table 6), and (iii) an example of a patient consuming more than one meal of oily fish per week with up to 260 mg daily DHA intake.

[2] = mouse, in vivo
From the text: Mature adult C57BL/6J mice were fed for 77 days with a customized rodent diet containing 0.5% w/w D-DHA and no natural DHA. The animals were sacrificed, and plasma, red blood cells and retinal tissues were dissected at study Days 8, 19, 38, 77, (six animals per time point, 3 males+3 females). Active D-DHA+DHA were extracted from samples and derivatized into methyl esters with a mixture of heptane/toluene (63:37 by volume), and methanol/dimethoxypropane/sulfuric acid (85:11:4 by volume) by gentle shaking at 80° C. for 2 hours, followed by separation and drying down of the organic phase under nitrogen. D-DHA+DHA methyl esters were structurally identified and quantified by gas chromatography coupled with a tandem mass spectrometry detector and D-DHA substitution levels (in percent of total DHA) were calculated.

[3] = Predicted steady-state D-DHA substitution and plasma decline without dosing in patients, modeled from the mouse data; parameters: species or system human
[4] = Daily D-DHA Dose 250 mg, Background DHA/Day 130 mg
[5] = Daily D-DHA Dose 250 mg, Background DHA/Day 180 mg
[6] = Daily D-DHA Dose 250 mg, Background DHA/Day 260 mg
[7] = Daily D-DHA Dose 500 mg, Background DHA/Day 130 mg
[8] = Daily D-DHA Dose 500 mg, Background DHA/Day 180 mg
[9] = Daily D-DHA Dose 500 mg, Background DHA/Day 260 mg
[10] = Daily D-DHA Dose 750 mg, Background DHA/Day 260 mg
[11] = Daily D-DHA Dose 1000 mg, Background DHA/Day 260 mg

[2H]C([2H])(/C=C\CC)/C=C\C([2H])([2H])/C=C\C([2H])([2H])/C=C\C([2H])([2H])/C=C\C([2H])([2H])/C=C\CCC(=O)O [D-DHA, D-10-docosahexaenoic acid]
protection against geographic atrophy (geographic atrophy; concentration of D-DHA at least 50% of the total DHA in the retina, feed 0.25% or 0.5% D-DHA, 4 weeks after iron injection): fully protected
protection against geographic atrophy (geographic atrophy; lower concentrations of D-DHA to DHA in the retina (below 50%)): protection was achieved but at reduced rates
protection against geographic atrophy (geographic atrophy; ratios of about 1:4 of D-DHA to DHA): protection is accorded
protection against geographic atrophy (geographic atrophy; ratios of at least about 1:1 D-DHA to DHA): maximal
ratio of D-DHA to DHA at steady state ([1]; 250 mg D-DHA per day, on average about 130 mg per day of DHA, plasma, red blood cells, liver, skeletal muscle): 1.92 to 1
Time to reach 20% in Plasma (0.2:1 D-DHA to DHA Ratio) w/o taking oral D-DHA [1, 4]: ≤ 77 days
Time to reach ≤50% in Plasma (1:1 D-DHA to DHA Ratio) w/o taking oral D-DHA [1, 4]: ≤ 22 days
Days to reach ≤50% in Plasma (1:1 D-DHA to DHA Ratio) w/o taking oral D-DHA [1, 5]: ≤ 11 days
Time to reach 20% in Plasma (0.2:1 D-DHA to DHA Ratio) w/o taking oral D-DHA [1, 5]: ≤ 66 days
Days to reach ≤50% in Plasma (1:1 D-DHA to DHA Ratio) w/o taking oral D-DHA [1, 6]: below 50%
Time to reach 20% in Plasma (0.2:1 D-DHA to DHA Ratio) w/o taking oral D-DHA [1, 6]: ≤ 29 days
Time to reach 20% in Plasma (0.2:1 D-DHA to DHA Ratio) w/o taking oral D-DHA [1, 7]: ≤ 46 days
Time to reach ≤50% in Plasma (1:1 D-DHA to DHA Ratio) w/o taking oral D-DHA [1, 7]: ≤ 6 days
Days to reach ≤50% in Plasma (1:1 D-DHA to DHA Ratio) w/o taking oral D-DHA [1, 8]: ≤ 35 days
Time to reach 20% in Plasma (0.2:1 D-DHA to DHA Ratio) w/o taking oral D-DHA [1, 8]: ≤ 90 days
Days to reach ≤50% in Plasma (1:1 D-DHA to DHA Ratio) w/o taking oral D-DHA [1, 9]: ≤ 8 days
Time to reach 20% in Plasma (0.2:1 D-DHA to DHA Ratio) w/o taking oral D-DHA [1, 9]: ≤ 63 days
Time to reach ≤50% in Plasma (1:1 D-DHA to DHA Ratio) w/o taking oral D-DHA ([1]; Daily D-DHA Dose 750 mg, Background DHA/Day 130 mg): ≤ 60 days
Days to reach ≤50% in Plasma (1:1 D-DHA to DHA Ratio) w/o taking oral D-DHA ([1]; Daily D-DHA Dose 750 mg, Background DHA/Day 180 mg): ≤ 49 days
Days to reach ≤50% in Plasma (1:1 D-DHA to DHA Ratio) w/o taking oral D-DHA [1, 10]: ≤ 26 days
Time to reach 20% in Plasma (0.2:1 D-DHA to DHA Ratio) w/o taking oral D-DHA [1, 10]: ≤ 81 days
Time to reach ≤50% in Plasma (1:1 D-DHA to DHA Ratio) w/o taking oral D-DHA ([1]; Daily D-DHA Dose 1000 mg, Background DHA/Day 130 mg): ≤ 70 days
Days to reach ≤50% in Plasma (1:1 D-DHA to DHA Ratio) w/o taking oral D-DHA ([1]; Daily D-DHA Dose 1000 mg, Background DHA/Day 180 mg): ≤ 59 days
Days to reach ≤50% in Plasma (1:1 D-DHA to DHA Ratio) w/o taking oral D-DHA [1, 11]: ≤ 38 days
Time to reach 20% in Plasma (0.2:1 D-DHA to DHA Ratio) w/o taking oral D-DHA [1, 11]: ≤ 93 days
Time to reach ≤50% in Plasma (1:1 D-DHA to DHA Ratio) w/o taking oral D-DHA ([1]; Daily D-DHA Dose 1250 mg, Background DHA/Day 130 mg): ≤ 77 days
Days to reach ≤50% in Plasma (1:1 D-DHA to DHA Ratio) w/o taking oral D-DHA ([1]; Daily D-DHA Dose 1250 mg, Background DHA/Day 180 mg): ≤ 67 days
Days to reach ≤50% in Plasma (1:1 D-DHA to DHA Ratio) w/o taking oral D-DHA ([1]; Daily D-DHA Dose 1250 mg, Background DHA/Day 260 mg): ≤ 47 days
D-DHA substitution rate at steady-state (% of total DHA) ([1]; Fixed daily D-DHA dose 250 mg): 66%
D-DHA substitution rate at steady-state (% of total DHA) ([1]; Fixed daily D-DHA dose 500 mg): 79%
D-DHA substitution rate at steady-state (% of total DHA) ([1]; Fixed daily D-DHA dose 1000 mg): 88%
time to plasma steady state concentration of active D-DHA after the start of therapy ([1]; plasma, patients): about 14 days
accretion half-life [2]: ~210 h
time to red blood cell steady state concentration of active D-DHA after the start of therapy ([3]; red blood cell, patients): about 45 days
time to steady state concentration of active D-DHA after start of therapy ([3]; skeletal muscle tissue): about 11 weeks
